Data as given in patent publication US11793881B2, “Polyethylene glycol conjugate medicament, preparation method therefor and use thereof” (CHONGQING UPGRA BIOTECHNOLOGY CO., LTD., priority 2019, dated 2023).

Test system: human breast cancer BT474 cells
Procedure: Test sample diluent: a proper amount of PEG300 and absolute alcohol was taken, and sodium chloride injection was added to make that the content of PEG300 and absolute alcohol was 20% (v/v).
Test samples: 41-32, 41-40 and 39-55 were respectively taken in a proper volume, and a proper amount of each of the test sample diluent was added, to respectively prepare solutions with the concentrations of 8.3 mg/mL, 4.6 mg/mL and 5.5 mg/mL.
An estrogen sustained-release tablet (17 beta-ESTRADIOL, product No.: SE-121, Innovative Research of America) was embedded under the skin at the neck back of NPG mice before cell inoculation. A BT474 cell suspension with the concentration of 7.5×10^7/mL and a Matrigel Basement membrane Matrix (BD Co.) were mixed according to the volume ratio of 1:1 to obtain a cell suspension with the concentration of 3.75×10^7/mL. 0.2 mL of the cell suspension was inoculated into the right mammary fat pad of the mice. The tumor growth was observed after inoculation, and 36 tumorigenic animals with the tumor volume of 66.83-324.35 mm^3 were finally screened and used for the test.
The negative control, SB7, 41-32, 41-40 and 39-55 were intravenously injected; LPT was intragastrically administered.

[1] = end of experiment (D29), doses as in E38

Compound: CS(=O)(=O)CCNCc1ccc(-c2ccc3ncnc(Nc4ccc(OCc5cccc(F)c5)c(Cl)c4)c3c2)o1 [LPT, Lapatinib]
- animals died during the experiment (6 animals per group, LPT 20 mg/kg i.g. (D19), SB7+LPT 5+5.6 mg/kg (D15, D25)): 1
- average tumor weight (after euthanasia (D29), doses as in E38): 1.226 ± 0.370 g
- inhibition effect on tumor growth (conclusion) (doses as in E38): certain inhibition effects
- average tumor volume (end of experiment (D29), LPT 20 mg/kg i.g. and 41-32 83 mg/kg i.v. every 3 days, SB7+LPT 5+5.6 mg/kg, 41-40 46 mg/kg i.v., 39-55 55 mg/kg i.v. one time/week, 4 weeks): 1313.80±241.46 mm^3
- average RTV (relative tumor volume) [1]: 8.13±2.92
- relative tumor proliferation rate T/C % [1]: 54.27%
- tumor weight inhibition rate IRTW % (from tumor weights after euthanasia (D29), b1725, doses as in E38): 32.15%
